From patent publication US6613317B1, “Volatile attractants for diabrotica species” (priority 1988, dated 2003)

What was measured:
[1] = test system: western corn rootworm (WCR) adults; assay: Sticky trap attraction in sweet corn plots (Example 1); type: in vivo, Diabrotica virgifera virgifera; details: August first year, single compounds 100 mg per trap
How it was run: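 Field trapping in sweet-corn plots beside a Blue Hubbard squash trap crop; lures on mineral-oil-impregnated cotton wicks atop sticky paper-carton traps on 1-m posts, 4 replicates in randomized complete blocks. Beetles counted after 24 h; VIPAE/VIP/TIC mixtures and single components at 1–300 mg per trap, ANOVA/Duncan at P=0.05.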

D. u. howardi adults = type: in vivo, Diabrotica undecimpunctata howardi; details: 1% incorporated into TEX×PEP bait, petri-dish tests
Source text: A noncucurbit carrier, 10-mesh corn grits (71% of which passed through a 2-mm screen), was obtained from Illinois Cereal Mills, Paris, Ill. (designated as pesticide carrier grits, 980). This carrier was impregnated with different levels of cucurbitacins by addition of varying amounts of a chloroform extract of AND×MAX fruit containing 0.12% cucurbitacins B and D (Metcalf, et al., Proc. Natl. Acad. Sci. USA, 77:3769-3772 (1980), Metcalf, et al., Environ. Entomol., 11:921-927 (1982)). The cucurbitacin-containing areas were scraped from plates, extracted in anhydrous methanol, centrifuged, and the UV absorption at 210 nm determined by UV spectrophotometry. Content of cucurbitacins was quantified from standard curves of pure cucurbitacins B, D, E and I, and E-glycoside (Metcalf, et al., Proc. Natl. Acad. Sci. USA, 77:3769-3772 (1980), Metcalf, et al., Environ. Entomol., 11:921-927 (1982)).
The various dried, ground, and insecticide-treated baits were given preliminary field evaluation by placing uniform amounts in petri-dish halves (150-mm diameter) that were placed at random on the ground in cucurbit and corn rows heavily infested ith SCR, WCR, and SCB adults. Ten dishes were used for each treatment; the maximum dosage of dried baits used was 300 mg per dish, equivalent to […]. Mortality counts of adult beetles in the dishes were made after 20-40 h.

[2] = test system: western corn rootworm (WCR); assay: Sticky trap attraction in corn, phenylethanol analogues (Example 6); type: in vivo, Diabrotica virgifera virgifera; details: Table 16; 100 mg per trap; four replicates; 24 hour
Experimental: Test chemicals (purchased from Aldrich Chemical Co.; Milwaukee, Wis.) were applied by capillary micropipettes to cotton dental wicks that were attached to tops of 1.0 liter cylindrical paper cartons covered with TangleTrap™, Grand Rapids, Mich. The trapping techniques used were as previously described in Example 1. Unless otherwise indicated, all treatments were made at a dosage of 100 mg or 100 μL of attractant per trap. Control traps had untreated wicks. Four replicates of treated and untreated traps were positioned randomly 10 meters apart on top of 1 m high posts along the edges of 25-50 ha. fields of hybrid corn (Zea mays), infested with adult NCR, SCR, and WCR beetles. Several experiments detailed in the Tables were made in a 0.4 ha plot of sweet corn (Illini X-tra Sweet).
Attraction of Diabrotica species adults of the sticky traps was measured by the mean number of beetles caught after 1 day (ca. 24 hours) exposure. The significance of the treatments was determined by analysis of variance and the individual means were separated by Duncan's multiple range test (Statistical Package for the Social Sciences, Nie, et al., 2nd. ed. McGraw-Hill, New York (1975). The data was logarithmically transformed for statistical analysis. Means and standard deviations are presented for the untransformed data. Significance levels were set at P=0.05 for all statistical analyses.

NCR = assay: Attraction to baited traps relative to controls (summary); type: in vivo, Diabrotica barberi; details: summary statement
Source text: 4-Methylphenylethanol, 4-chlorophenylethanol, 4-fluorophenylethanol, phenylethanol, phenylpropanol, 4-methoxyphenylethanol, 3-methoxyphenylethanol, 2-methoxyphenylethanol, 4-methoxyphenylpropanol, phenylethylamine, and phenylpropylamine attract NCR at rates approximately 5-50 times controls.

Structure (SMILES)	Mean number of WCR per trap (±standard deviation) ([1]; South Farms, 24 h, mixture 20 mg of each component, n = 4) [per trap]	relative percent activity of the mean WCR trap catch as compared with the highest mean value in the column ([1]; mixture 20 mg each component) [%]	increase in the kill of SCR beetles (D. u. howardi adults) [fold]	Mean number of WCR per trap (±standard deviation) [2] [a per trap]	rate of attraction of NCR relative to controls (NCR)
C=CCc1ccc(O)c(OC)c1 [XXIV, eugenol]	2.8 ± 1.0	41	4	–	–
OCC=Cc1ccccc1 [XVIII, cinnamyl alcohol]	–	–	–	4.0 ± 1.6	5-20 times
